Values after ≈ are worked out from the molar mass of the structure shown.
Details: buffer; pH 7.4; 200.0 µM

First: S=C(Nc1ccc(Oc2ccccc2)cc1)Nc1cccnc1
Second: Cc1ccc(OC(=O)Nc2ccccc2)cc1
The solubility kinetic of the first is 1.7-fold higher: 30 µg/mL (≈ 93.3 µM) for the first, 17.8 µg/mL (≈ 78.3 µM) for the second.

Going from `COc1cc(C(=O)O/N=C2\C=CC(=O)C(C)=C2)cc(OC)c1OC` to `COc1cc2[nH]c(C(=O)Nc3ccc(F)cc3)cc2c(OC)c1OC`, the solubility kinetic falls from > 49.7 µg/mL to 2.4 µg/mL (≈ 6.97 µM).

Going from `Cc1ccc(S(=O)(=O)CCc2nc3ccccc3[nH]2)cc1C` to `Cc1ccc(NC(=O)c2cc(C)nc3ccccc23)c(C)c1`, the solubility kinetic falls from > 47.2 µg/mL to 27.1 µg/mL (≈ 93.3 µM).

`CC(NC(=O)c1ccc(Br)o1)c1ccc(-n2ccnc2)cc1` (stereo not given) and `CC(C)c1ccc(C(=O)Nc2cccnc2)cc1` cannot be ordered by solubility kinetic: > 54 µg/mL for the first, > 36 µg/mL for the second.

First: O=C(Nc1cnccn1)c1ccc(Cl)cc1
Second: CC(=O)Nc1ccc(C(=O)Nc2cc(C)on2)cc1
The solubility kinetic of the first is lower: 34.7 µg/mL (≈ 149 µM) for the first, > 38.9 µg/mL for the second.

First: O=C(COC(=O)CNC(=O)c1ccccc1)NCc1ccc2c(c1)OCO2
Second: O=C(COC(=O)CNC(=O)C1CCCCC1)NCc1ccc(Cl)cc1
The solubility kinetic of the first is higher: > 55.6 µg/mL for the first, 49.5 µg/mL (≈ 135 µM) for the second.

Going from `Cc1ccccc1Sc1ccc([N+](=O)[O-])cn1` to `CC(C)(C)c1csc(Sc2ccc([N+](=O)[O-])cn2)n1`, the solubility kinetic falls from 7.4 µg/mL (≈ 30 µM) to 1.1 µg/mL (≈ 3.72 µM) (6.7-fold).

Compared with `FC(F)(F)c1cnc(COc2cc(Cl)cc(Cl)c2)c(Cl)c1`, `C#CC(C)OC(=O)Nc1cnccc1C(F)(F)F` (stereo not given) is higher in solubility kinetic: < 0.8 µg/mL for the first, 36 µg/mL (≈ 139 µM) for the second.

First: CC(C)(C)c1ccc(CSc2nc(N)cc(=O)[nH]2)cc1
Second: O=[N+]([O-])c1ccc(CSc2nc3ncc(Br)cc3[nH]2)cc1
The solubility kinetic of the first is 4.9-fold higher: 6.4 µg/mL (≈ 22.1 µM) for the first, 1.3 µg/mL (≈ 3.56 µM) for the second.

First: C[n+]1cccc(C(=O)Nc2ccccc2)c1.[Cl-]
Second: Cc1cccc(C(=O)Nc2ccc3ccccc3c2)c1
The solubility kinetic of the first is higher: 30 µg/mL for the first, < 0.6 µg/mL for the second.

`COc1cc(C(=O)NCC(=O)Nc2c(C)cccc2C)ccc1OCC(=O)N1CCOCC1` and `Cc1ccc(-n2c(C)cc(C(=O)OCC(=O)N3CCOCC3)c2C)cc1` cannot be ordered by solubility kinetic: > 68.3 µg/mL for the first, > 53.5 µg/mL for the second.

Compared with `CCOc1ccccc1C(=O)Nc1ccc(NC(=O)c2ccccc2)cc1`, `O=C(Nc1ccccc1C(=O)NC1CC1)c1ccccc1` is 9.8-fold higher in solubility kinetic: 1.7 µg/mL (≈ 4.72 µM) for the first, 16.7 µg/mL (≈ 59.6 µM) for the second.

`O=C(NCC(O)c1ccccc1)Nc1cccs1` (stereo not given) and `CN(C)C(CNC(=O)C1CCCN1C(=O)c1cccs1)c1ccccc1` (stereo not given) cannot be ordered by solubility kinetic: > 39.3 µg/mL for the first, > 55.7 µg/mL for the second.

Going from `COc1ccc(CNc2ncnc3sccc23)cc1` to `COC(=O)c1ccc(CSc2cc(C)c3ccccc3n2)o1`, the solubility kinetic falls from > 40.7 µg/mL to 3.4 µg/mL (≈ 10.8 µM).

Compared with `Cc1ccnc(N2C(=O)c3ccccc3C2=O)c1`, `Cc1cccc(NC(=O)c2ccc(-c3ccccc3[N+](=O)[O-])o2)c1` is lower in solubility kinetic: > 35.7 µg/mL for the first, 12.8 µg/mL (≈ 39.7 µM) for the second.

`CC(=O)c1ccc(NC(=O)COC(=O)Cc2ccsc2)cc1` and `Cn1nccc1C(=O)OCC(=O)Nc1cccc(Cl)c1` cannot be ordered by solubility kinetic: > 47.6 µg/mL for the first, > 44.1 µg/mL for the second.

`CCNC(=O)COC(=O)c1sccc1C` and `Cc1cc(C(=O)OCC(N)=O)c(C)n1-c1ccccc1` cannot be ordered by solubility kinetic: > 34.1 µg/mL for the first, 40.1 µg/mL (≈ 147 µM) for the second.

Going from `Cc1c2ccccc2nc2ccccc12` to `CN(C)C(=O)NC1c2ccccc2-c2ccccc21`, the solubility kinetic rises from 7.9 µg/mL (≈ 40.9 µM) to > 37.8 µg/mL.

`COc1ccc(C2NC(=O)NC3=C2C(=O)CCC3)cc1` (stereo not given) and `COc1cc2c(cc1OC)C(c1ccc(Br)cc1)NC(=O)C2` (stereo not given) cannot be ordered by solubility kinetic: > 40.8 µg/mL for the first, 45.2 µg/mL (≈ 125 µM) for the second.

Going from `NC(=O)CC[C@H](NC(=O)c1ccc(F)cc1)C(=O)N1CCN(Cc2ccc3c(c2)OCO3)CC1` to `CCC(C)(C)NC(=O)CN(C(=O)c1ccc(N2CCCC2)nc1)c1ccc(F)cc1`, the solubility kinetic falls from > 70.6 µg/mL to 60.7 µg/mL (≈ 147 µM).

`O=C(O)c1cc2c(cn1)[nH]c1ccccc12` and `c1ccc2[nH]cnc2c1` cannot be ordered by solubility kinetic: > 31.8 µg/mL for the first, > 17.7 µg/mL for the second.

First: Nc1cc(C(=O)OCC(=O)N2CCOCC2)ccc1Cl
Second: COc1cccc(C(=O)OCC(=O)Nc2ccc3c(c2)OCCO3)c1
The solubility kinetic of the first is higher: > 44.8 µg/mL for the first, 8 µg/mL (≈ 23.3 µM) for the second.

Going from `O=C(Nc1ccc(S(=O)(=O)N2CCOCC2)cc1)c1cccnc1` to `Cc1ccc(NC(=O)c2ccc([N+](=O)[O-])s2)cc1S(=O)(=O)N1CCOCC1`, the solubility kinetic falls from > 52.1 µg/mL to 3.1 µg/mL (≈ 7.53 µM).

Compared with `COc1ccc(C(C)(C)C)cc1NC(=O)COC(=O)C(C)C`, `COc1ccc(OC)c(NC(=O)COC(=O)CC2CCCCC2)c1` is 1.7-fold lower in solubility kinetic: 33.1 µg/mL (≈ 108 µM) for the first, 19 µg/mL (≈ 56.6 µM) for the second.

`COc1ccccc1N1C(=O)CSC1=NC(=O)c1ccccc1` and `COc1ccccc1/C=C/C(=O)Nc1cccnc1Cl` are within 1.5-fold of each other in solubility kinetic: 3 µg/mL (≈ 9.19 µM) for the first, 2.7 µg/mL (≈ 9.35 µM) for the second.

Compared with `Cc1cc(C)c(NC(=O)CCc2c(C)noc2C)c(C)c1`, `Cc1cc(C)cc(NC(=O)Nc2cccc(S(N)(=O)=O)c2)c1` is lower in solubility kinetic: > 43 µg/mL for the first, 2.5 µg/mL (≈ 7.83 µM) for the second.

Compared with `O=C(Nc1ccc(Cl)cc1)C1CCCCN1S(=O)(=O)c1ccccc1` (stereo not given), `CCS(=O)(=O)c1ccccc1C(=O)NC1CCCc2ccccc21` (stereo not given) is 1.7-fold higher in solubility kinetic: 24.7 µg/mL (≈ 65.2 µM) for the first, 42.6 µg/mL (≈ 124 µM) for the second.

Going from `CCOC(=O)c1sc2ncnc(Nc3cccc(C(=O)O)c3)c2c1C` to `CCOC(=O)C1=C(C)NC(C)=C(C(=O)OCC)C1C(=O)OCC(=O)N(C)Cc1ccccc1`, the solubility kinetic falls from > 53.6 µg/mL to 2.8 µg/mL (≈ 6.11 µM).

`COc1cccc(C(=O)NCc2ccco2)c1` and `CC[C@H](C)[C@H](NC(N)=O)C(=O)NCCc1ccc(OC)cc1` cannot be ordered by solubility kinetic: > 34.7 µg/mL for the first, > 46.1 µg/mL for the second.

Going from `CCN(C(=O)C(C)Cl)c1ccccc1` (stereo not given) to `CN1CC(=O)N=C1N.Cl`, the solubility kinetic rises from 20.6 µg/mL (≈ 97.3 µM) to > 22.4 µg/mL.
